These results are taken from patent publication US7417025B2, “Use of poly-α2,8-sialic acid mimetic peptides to modulate NCAM functions” (Centre National de la Recherche Scientifique, priority 2002, dated 2008).

The test system of test [1] is 30H12 monoclonal antibody. The test is described as follows: Competitive binding to PSA-NCAM expressing cells (30H12). Also noted: dose or concentration left out as unconfirmed. Here is the method:
FIGS. 12B, 12C and 12D: competitive binding to PSA-NCAM expressing cells. B: pre-incubation of p65 (1 mM) or p66 (1 mM) with MenB anti-PSA antibody. C: 30H12 anti-PSA antibody without peptide. […]
(§1) The specificity of p65 and p66 peptides was tested in a competition assay using anti-PSA antibodies and PSA-NCAM expressing cells. […] The binding specificity was examined in greater detail by testing peptide recognition by another anti-PSA mononclonal antibody (MenB). […] Thus, p65 and p66 mimotopes appear to be specific for a unique (idiotypic) determinant.

In test [2] the test system is Mouse dorsal root ganglion explants (E13.5). Kind of test: Dorsal root ganglion explant culture: neurite outgrowth and fasciculation. Type of test: cell-based. The protocol: E13.5 DRGs were dissected out from mice embryos in HBSS medium and seeded on glass coverslips coated with polylysine or with peptides linked to BSA. Explants were cultured in the presence or the absence of the peptides under soluble form (40 μM) in two ml of neurobasal medium (DMEM/Ham's F12, 3:1 (V/V), GIBCO, buffered with 20 mM Hepes), supplemented as described in Faivre-Sarrailh et al., J. Cell. Sci., 1999, 18, 3015-3027 and Chazal et al., J.Neurosci., 2000, 20, 1446-1457.
Fixed DRGs (Dorsal Root ganglia) explants and sections were incubated at 4° C. respectively 2 hr with an anti-neurofilament (SMI-31, dilution 1:800, STERNBERGER MONOCLONALS) and overnight with an anti-PSA antibody (dilution 1:200, Rougon et al, J. Cell. Biol., 1986, 103, 2429-2437). Revelation was performed by 1 hr incubation with the corresponding fluorescent-labeled secondary antibody (Goat anti-mouse IgM or IgG conjugated with texas red, IMMUNOTECH)
(§2) After 48 h in culture, explants were examining directly (SVZ) or after overnight fixation with a 4% paraformaldehyde solution in PBS and immunostaining (DRGs). Observation was done using 2, 5×, 5×, 10× and 32× objectives (Axiovert 35M, ZEISS). Images were collected with a video camera (Cool View, PHOTONIC SCIENCE) and analysed using image-processing software (Visiolab1000, BIOCOM). Mean migration distance (calculated on five different experiments, including at least five explants per condition) or mean length of the longest neurite (calculated on two different experiments, including at least eight explants per condition), was the distance in micrometers between the explant edge and the border of the cell migration front. Four measurements were performed for each explant. The significance of the differences between the control and the different experimental conditions was calculated by Student's t test.
Mouse dorsal root ganglion explants (E13.5) were cultured in the presence of p65 and p66 cyclic mimetic peptides, either in soluble form or coated on the microplates as BSA conjugates. Cells cultured in the absence of peptides or in the presence of reverse peptides (coated or in soluble form) were used as controls.

A further test concerns 30H12 antibody. The test is described as follows: ELISA with peptide-BSA conjugate on 30H12-coated plates. Type of test: binding. The conditions noted are these: no competitor, FIG. 12A. An excerpt:
FIG. 12A: ELISA using 30H12 anti-PSA monoclonal antibody-coated plates.
The specificity of the cyclic peptides was investigated in an ELISA assay using plates coated with 30H12 antibody, following the protocol as described above for the competitive ELISA, with the exception that the competitor was omitted.

For a further test, the system named is chick retina axons. Kind of test: Intravitreal injection in chick embryo, retinal whole mount: axon fasciculation and guidance in vivo. To be noted: injected into chicken embryo eyes at E3, retina observed at E9. The protocol: The dashed rectangle indicates the area from which photographs were taken. Arrows point toward the optic fissure. Axons of E9 chick retina injected at E3 with the reverse peptide (C,F) or the p65 peptide (D,G,E,H). Arrowheads show examples of axons that leave their fascicle and run perpendicularly to it.
Injections were performed as described in Monnier et al. (Developmental Biology, 2001, 229, 1-14). Briefly, a 2×2 cm window was cut into the shell over E3 chick embryos. One μl of Fast green with 10 mM of p65 or reverse peptide was injected into the right eye vitreous body using a capillary. After a five-days incubation at 37° C., (E8) retinae were dissected, spread onto nitrocellulose filters (MILIPORE), and fixed with 4% paraformaldehyde solution in PBS. Two small DiI (1,1′-dioctadecyl-3,3,3′,3′-tetramethylindocarbocyanine perchlorate) crystals were applied dorsally to the optic fissure. Retinae were stored in the dark at 37° C. for 10 days until the dye reached the axonal growth cones in the fissure, mounted in glycerol:PBS (9:1, v:v) and analysed using confocal microscopy.

The test system of test [3] is subventricular zone explants (neuronal precursors). Kind of test: Subventricular zone (SVZ) explant culture: cell migration in vitro. Type of test: cell-based, mouse. To be noted: 0.4 μM peptide.
The next test deals with MenB anti-PSA antibody. The test is described as follows: Competitive binding to PSA-NCAM expressing cells (MenB). Here is the method:
FIGS. 12B, 12C and 12D: competitive binding to PSA-NCAM expressing cells. B: pre-incubation of p65 (1 mM) or p66 (1 mM) with MenB anti-PSA antibody. C: 30H12 anti-PSA antibody without peptide. D: pre-incubation of p65 (1 mM) or p66 (1 mM) with 30H12 anti-PSA antibody.
as §1

For test [4], the system named is subventricular zone explants (neuronal precursors). Kind of test: Subventricular zone (SVZ) explant culture: cell migration in vitro. Type of test: cell-based, mouse. Here is the method:
Cultures of SVZ explants were performed as described in Chazal et al., precited. Briefly, 1-day-old mice were killed by rapid decapitation. Brains were dissected out and sectionned by Vibratome (Leica). The SVZ from the lateral wall of the anterior lateral ventricle horn was dissected out in HBSS medium (LIFE TECHNOLOGIES) and cut into 200-300 μm diameter explants. The explants were mixed with Matrigel (BECKTON DICKINSON) and cultured in four-well dishes. After polymerisation, the gel was overlaid with 400 μl of serum-free medium containing B-27 supplement (LIFE TECHNOLOGIES), in the presence or the absence of 40 μM of peptides (p65, p66, reverse p65, p21 or p22) and 70 U of Endo N per milliliter.
as §2

Where [5] appears, read: peptide in coated form (BSA conjugate).
Setting [6] is: peptide in soluble form (40 μM), versus controls.

“Also recorded” adds a separate entry of the source.

For CSKIASMETGCG [p66], the “Binding of 30H12 monoclonal antibody to PSA-NCAM expressing cells after pre-incubation with peptide” value in test [1] is recorded as “prevented its binding”. In test [2] (setting [5]), the Fasciculation result is “opposite effect on fasciculation” and the Neurite outgrowth entry is given as “no effect on neurite outgrowth; also recorded: no significant increase”. In test [2] (setting [6]), the Axonal growth entry was “significant increase in axonal growth” and the “Fasciculation of axon bundles” value is “clear defasciculation of axon bundles”. The “Increase of neurite outgrowth compared to the controls” value in test [2] (peptide in soluble form, mean length of the longest neurite) is recorded as 21%. In the test with 30H12 antibody, the “Binding of cyclic peptides to 30H12 antibody in ELISA” value was “highest binding”. In addition, in the test on chick retina axons, the “Axon guidance and fasciculation in retina in vivo” value is “axons guidance and fasciculation defects”. The “Increase in the rate of migration of the neuronal precursors compared with the control without peptide” value in test [3] is given as “+26%”. In the test on MenB anti-PSA antibody (FIG. 12C), the “Recognition of PSA-NCAM by MenB after pre-incubation with peptide” value is listed as “did not prevent recognition of PSA-NCAM”. Besides, the “Antibody specificity of peptide binding (30H12 versus MenB)” value in the test on MenB anti-PSA antibody (in words) is recorded as “bind only to 30H12”. Further, the “Rate of migration of the neuronal precursors and chain-like arrangement” value in test [4] (SVZ explants in Matrigel, FIG. 4) is “increases the rate of migration”. The “PSA-dependence of the migration effect” value in test [4] (with endo N treatment) is recorded as “abolished by endo N treatment”.
